These compounds were tested against Muscarinic acetylcholine receptor (assay: Binding affinity to muscarinic acetylcholine receptor was determined in presence of [3H]QNB radioligand (in vitro)).
Assay type: protein assay

Row | Compound | Ki [nM]
1 | COC(=O)N(C)C(C)C#CCn1ccnc1 (stereo not drawn) | 1355
2 | CC(=O)N(C)CC#CCN1CCCC1 | 260
3 | CN(C)C(=O)N(C)CC#CCN1CCCC1 | 140
4 | CC1CCC(=O)N1CC#CCN(C)C (stereo not drawn) | 690
5 | CCOC(=O)N(C)CC#CCN1CCCC1 | 4219
6 | O=C1OCCN1CC#CCN1CCCC1 | 1362

Further lines, results first:

Row | Ki [nM] | Compound
7 | 64 | COC(=O)N(C)C(C)C#CCN1CCCC1 (stereo not drawn)
8 | 929 | O=C1OCCN1CC#CCn1ccnc1
9 | 11.6 | Cc1cncn1CC#CCN1C(=O)CCC1C (stereo not drawn)
10 | 568 | CCOC(=O)N(C)CC#CCn1cncc1C
11 | 64 | Cc1cncn1CC#CCN1CCCC1=O
12 | 97 | COC(=O)N(C)C(C)C#CCn1cncc1C (stereo not drawn)

These compounds were tested against Muscarinic acetylcholine receptor (assay: Binding affinity to muscarinic acetylcholine receptor was determined in presence of [3H]OXO-M radioligand (in vitro)).
Assay type: protein assay

Row | Compound | Ki [nM]
13 | COC(=O)N(C)C(C)C#CCn1ccnc1 (stereo not drawn) | 13
14 | CC(=O)N(C)CC#CCN1CCCC1 | 0.92
15 | CN(C)C(=O)N(C)CC#CCN1CCCC1 | 3.6
16 | CC1CCC(=O)N1CC#CCN(C)C (stereo not drawn) | 7.1
17 | CCOC(=O)N(C)CC#CCN1CCCC1 | 65
18 | O=C1OCCN1CC#CCN1CCCC1 | 8.9

Now from value to compound:

Row | Ki [nM] | Compound
19 | 1.5 | COC(=O)N(C)C(C)C#CCN1CCCC1 (stereo not drawn)
20 | 5.7 | O=C1OCCN1CC#CCn1ccnc1
21 | 1.68 | Cc1cncn1CC#CCN1C(=O)CCC1C (stereo not drawn)
22 | 156 | CCOC(=O)N(C)CC#CCn1cncc1C
23 | 3.2 | Cc1cncn1CC#CCN1CCCC1=O
24 | 9.5 | COC(=O)N(C)C(C)C#CCn1cncc1C (stereo not drawn)

The compounds below were run against Muscarinic acetylcholine receptor (Rattus norvegicus) (UniProt P08482+P08483+P08485+P08911+P10980) (assay: Ratio of Ki value for QNB to that of Ki value for Oxo-M.).
Assay type: protein assay

Row | Compound | Ki ratio
25 | COC(=O)N(C)C(C)C#CCn1ccnc1 (stereo not drawn) | 104
26 | CC(=O)N(C)CC#CCN1CCCC1 | 283
27 | CN(C)C(=O)N(C)CC#CCN1CCCC1 | 39
28 | CC1CCC(=O)N1CC#CCN(C)C (stereo not drawn) | 97
29 | CCOC(=O)N(C)CC#CCN1CCCC1 | 65
30 | O=C1OCCN1CC#CCN1CCCC1 | 153

More lines, now with the values ahead:

Row | Ki ratio | Compound
31 | 43 | COC(=O)N(C)C(C)C#CCN1CCCC1 (stereo not drawn)
32 | 164 | O=C1OCCN1CC#CCn1ccnc1
33 | 6.9 | Cc1cncn1CC#CCN1C(=O)CCC1C (stereo not drawn)
34 | 3.6 | CCOC(=O)N(C)CC#CCn1cncc1C
35 | 20 | Cc1cncn1CC#CCN1CCCC1=O
36 | 10 | COC(=O)N(C)C(C)C#CCn1cncc1C (stereo not drawn)

Each compound was assayed on Mus musculus (assay: ED50 value as cholinergic agonist by measuring salivation in mice (in vivo)).
Assay type: functional

Row | Compound | ED50 [mg/kg]
37 | COC(=O)N(C)C(C)C#CCN1CCCC1 (stereo not drawn) | 14.2
38 | COC(=O)N(C)C(C)C#CCn1ccnc1 (stereo not drawn) | 8
39 | CC(=O)N(C)CC#CCN1CCCC1 | 0.55
40 | O=C1OCCN1CC#CCn1ccnc1 | 2
41 | Cc1cncn1CC#CCN1C(=O)CCC1C (stereo not drawn) | > 100
42 | CCOC(=O)N(C)CC#CCn1cncc1C | > 100
43 | CN(C)C(=O)N(C)CC#CCN1CCCC1 | > 10
44 | Cc1cncn1CC#CCN1CCCC1=O | > 100
45 | CC1CCC(=O)N1CC#CCN(C)C (stereo not drawn) | 3
46 | COC(=O)N(C)C(C)C#CCn1cncc1C (stereo not drawn) | > 100
47 | CCOC(=O)N(C)CC#CCN1CCCC1 | > 100
48 | O=C1OCCN1CC#CCN1CCCC1 | 5.4

The compounds below were run on Mus musculus (assay: ED50 value determined as oxotremorine antagonism by measuring lacrimation in mice (in vivo)).
Assay type: functional

Row | Compound | ED50 [mg/kg]
49 | COC(=O)N(C)C(C)C#CCN1CCCC1 (stereo not drawn) | > 100
50 | COC(=O)N(C)C(C)C#CCn1ccnc1 (stereo not drawn) | > 100
51 | CC(=O)N(C)CC#CCN1CCCC1 | > 10
52 | O=C1OCCN1CC#CCn1ccnc1 | > 100
53 | Cc1cncn1CC#CCN1C(=O)CCC1C (stereo not drawn) | 0.8
54 | CCOC(=O)N(C)CC#CCn1cncc1C | 66
55 | CN(C)C(=O)N(C)CC#CCN1CCCC1 | 6.6
56 | Cc1cncn1CC#CCN1CCCC1=O | 0.8
57 | CC1CCC(=O)N1CC#CCN(C)C (stereo not drawn) | > 100
58 | COC(=O)N(C)C(C)C#CCn1cncc1C (stereo not drawn) | 3.7
59 | CCOC(=O)N(C)CC#CCN1CCCC1 | > 100
60 | O=C1OCCN1CC#CCN1CCCC1 | > 10

What follows are compounds tested on Mus musculus (assay: ED50 value determined as oxotremorine antagonism by measuring tremors in mice (in vivo)).
Assay type: functional

Row | Compound | ED50 [mg/kg]
61 | COC(=O)N(C)C(C)C#CCN1CCCC1 (stereo not drawn) | > 100
62 | COC(=O)N(C)C(C)C#CCn1ccnc1 (stereo not drawn) | > 100
63 | CC(=O)N(C)CC#CCN1CCCC1 | > 10
64 | O=C1OCCN1CC#CCn1ccnc1 | > 100
65 | Cc1cncn1CC#CCN1C(=O)CCC1C (stereo not drawn) | 14.2
66 | CCOC(=O)N(C)CC#CCn1cncc1C | 30
67 | CN(C)C(=O)N(C)CC#CCN1CCCC1 | > 10
68 | Cc1cncn1CC#CCN1CCCC1=O | > 100
69 | CC1CCC(=O)N1CC#CCN(C)C (stereo not drawn) | > 100
70 | COC(=O)N(C)C(C)C#CCn1cncc1C (stereo not drawn) | > 100
71 | CCOC(=O)N(C)CC#CCN1CCCC1 | > 100
72 | O=C1OCCN1CC#CCN1CCCC1 | > 10

The compounds below were run on Mus musculus (assay: ED50 value as cholinergic agonism by measuring lacrimation in mice (in vivo)).
Assay type: functional

Row | Compound | ED50 [mg/kg]
73 | COC(=O)N(C)C(C)C#CCN1CCCC1 (stereo not drawn) | 20.9
74 | COC(=O)N(C)C(C)C#CCn1ccnc1 (stereo not drawn) | 8
75 | CC(=O)N(C)CC#CCN1CCCC1 | 0.55
76 | O=C1OCCN1CC#CCn1ccnc1 | 3
77 | Cc1cncn1CC#CCN1C(=O)CCC1C (stereo not drawn) | > 100
78 | CCOC(=O)N(C)CC#CCn1cncc1C | > 100
79 | CN(C)C(=O)N(C)CC#CCN1CCCC1 | > 10
80 | Cc1cncn1CC#CCN1CCCC1=O | > 100
81 | CC1CCC(=O)N1CC#CCN(C)C (stereo not drawn) | 3.7
82 | COC(=O)N(C)C(C)C#CCn1cncc1C (stereo not drawn) | > 100
83 | CCOC(=O)N(C)CC#CCN1CCCC1 | > 100
84 | O=C1OCCN1CC#CCN1CCCC1 | > 10

The compounds below were run on Mus musculus (assay: ED50 value determined as oxotremorine antagonism by measuring salivation in mice (in vivo)).
Assay type: functional

Row | Compound | ED50 [mg/kg]
85 | COC(=O)N(C)C(C)C#CCN1CCCC1 (stereo not drawn) | > 100
86 | COC(=O)N(C)C(C)C#CCn1ccnc1 (stereo not drawn) | > 100
87 | CC(=O)N(C)CC#CCN1CCCC1 | > 10
88 | O=C1OCCN1CC#CCn1ccnc1 | > 100
89 | Cc1cncn1CC#CCN1C(=O)CCC1C (stereo not drawn) | 1.4
90 | CCOC(=O)N(C)CC#CCn1cncc1C | 66
91 | CN(C)C(=O)N(C)CC#CCN1CCCC1 | > 10
92 | Cc1cncn1CC#CCN1CCCC1=O | > 100
93 | CC1CCC(=O)N1CC#CCN(C)C (stereo not drawn) | > 100
94 | COC(=O)N(C)C(C)C#CCn1cncc1C (stereo not drawn) | 6.6
95 | CCOC(=O)N(C)CC#CCN1CCCC1 | > 100
96 | O=C1OCCN1CC#CCN1CCCC1 | > 10

These compounds were tested on Mus musculus (assay: ED50 value as cholinergic agonist by measuring tremors in mice (in vivo)).
Assay type: functional

Row | Compound | ED50 [mg/kg]
97 | COC(=O)N(C)C(C)C#CCN1CCCC1 (stereo not drawn) | 9.7
98 | COC(=O)N(C)C(C)C#CCn1ccnc1 (stereo not drawn) | 6.6
99 | CC(=O)N(C)CC#CCN1CCCC1 | 0.3
100 | O=C1OCCN1CC#CCn1ccnc1 | 3
101 | Cc1cncn1CC#CCN1C(=O)CCC1C (stereo not drawn) | > 100
102 | CCOC(=O)N(C)CC#CCn1cncc1C | 97
103 | CN(C)C(=O)N(C)CC#CCN1CCCC1 | 1.2
104 | Cc1cncn1CC#CCN1CCCC1=O | 2.5
105 | CC1CCC(=O)N1CC#CCN(C)C (stereo not drawn) | 1.7
106 | COC(=O)N(C)C(C)C#CCn1cncc1C (stereo not drawn) | 97
107 | CCOC(=O)N(C)CC#CCN1CCCC1 | 66
108 | O=C1OCCN1CC#CCN1CCCC1 | 3.7

From ChEMBL document CHEMBL1125599, “Cholinergic activity of acetylenic imidazoles and related compounds” (J Med Chem, 1991)
